Earlier results in patent US20210338678A1, “BIOACTIVE VITAMIN COMBINATIONS” (BioVit, Inc., priority 2020, published 2021).

Assays:
[1] = system: CD8+T lymphocytes and natural killer (NK) cell activity; settings: vitamin B12-deficient patients
[2] = system: acute and chronic pain and inflammation; settings: mice
[3] = system: H1N1 influenza vaccine response; settings: mothers supplemented during pregnancy and postpartum
[4] = patients with type 2 diabetes, 16 weeks of treatment

Compound: C/C1=C2/[N-][C@H]([C@H](CC(N)=O)[C@@]2(C)CCC(=O)NC[C@@H](C)OP(=O)([O-])O[C@H]2[C@@H](O)[C@@H](n3cnc4cc(C)c(C)cc43)O[C@@H]2CO)[C@]2(C)N=C(/C(C)=C3N=C(/C=C4N=C1[C@@H](CCC(N)=O)C\4(C)C)[C@@H](CCC(N)=O)[C@]\3(C)CC(N)=O)[C@@H](CCC(N)=O)[C@]2(C)CC(N)=O.[CH3-].[Co+3] [methylcobalamin, Methylcobalamin]
- antibody response of the immune system [1]: improves the antibody response of the immune system

Compound: cyanocobalamin
- control of acute and chronic neuropathic pain [2]: controlling acute and chronic neuropathic pain

Compound: Vitamin B12
- H1N1 influenza vaccine response [3]: improved H1N1 influenza vaccine response in mothers

Compound: CN(C)C(=N)N=C(N)N [metformin, Metformin]
- homocysteine [4]: modest increase in homocysteine
- levels of folate and vitamin B12 [4]: reduces levels of folate and vitamin B12
